Experimental data taken from the supplement of paper PMC10307832.

Columns and labels:
Assay in all cases: relative viability (nuclei count vs DMSO), 5 days (fraction); higher = more cells survive
HCC-44 = system: HCC-44
Outline: (§1)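 Lung cancer cell lines in 1536-well plates got either a single drug or a fixed anchor-drug dose together with five library-drug doses (not always all listed) in √10 steps, by pin tool, on the day after seeding. Nuclei were counted after 5 days, and relative viability is the treated-to-vehicle ratio of nuclei counts. Values are medians of duplicate plates.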

NCI-H1437 = system: NCI-H1437
Outline: as §1

HCC-366 = system: HCC-366
Outline: as §1

NCI-H3122 = system: NCI-H3122
Outline: as §1

NCI-H2085 = system: NCI-H2085
Outline: as §1

NCI-H1648 = system: NCI-H1648
Outline: as §1

NCI-H1623 = system: NCI-H1623
Outline: as §1

LOU-NH91 = system: LOU-NH91
Outline: as §1

## CCN(CC)CCCCNc1ncc2cc(-c3cc(OC)cc(OC)c3)c(NC(=O)NC(C)(C)C)nc2n1 + Cc1cc(Nc2cc(N3CCN(C)CC3)nc(Sc3ccc(NC(=O)C4CC4)cc3)n2)n[nH]1 [Tozasertib] (partner 0.1 µM)
HCC-44; first compound 0.01 µM
  relative viability: 1.1
HCC-44; first compound 0.03162 µM
  relative viability: 1.07
HCC-44; first compound 0.1 µM
  relative viability: 0.953
HCC-44; first compound 0.3162 µM
  relative viability: 0.899
HCC-44; first compound 1 µM
  relative viability: 0.85
NCI-H1437; first compound 0.01 µM
  relative viability: 0.426
NCI-H1437; first compound 0.03162 µM
  relative viability: 0.403
NCI-H1437; first compound 0.1 µM
  relative viability: 0.374
NCI-H1437; first compound 0.3162 µM
  relative viability: 0.46
NCI-H1437; first compound 1 µM
  relative viability: 0.335
HCC-366; first compound 0.01 µM
  relative viability: 0.112
HCC-366; first compound 0.03162 µM
  relative viability: 0.135
HCC-366; first compound 0.1 µM
  relative viability: 0.102
HCC-366; first compound 0.3162 µM
  relative viability: 0.107
HCC-366; first compound 1 µM
  relative viability: 0.0931
NCI-H3122; first compound 0.01 µM
  relative viability: 0.559
NCI-H3122; first compound 0.03162 µM
  relative viability: 0.439
NCI-H3122; first compound 0.1 µM
  relative viability: 0.464
NCI-H3122; first compound 0.3162 µM
  relative viability: 0.326
NCI-H3122; first compound 1 µM
  relative viability: 0.364
NCI-H2085; first compound 0.01 µM
  relative viability: 0.819
NCI-H2085; first compound 0.03162 µM
  relative viability: 0.762
NCI-H2085; first compound 0.1 µM
  relative viability: 0.823
NCI-H2085; first compound 0.3162 µM
  relative viability: 0.729
NCI-H2085; first compound 1 µM
  relative viability: 0.639
NCI-H1648; first compound 0.01 µM
  relative viability: 0.657
NCI-H1648; first compound 0.03162 µM
  relative viability: 0.559
NCI-H1648; first compound 0.1 µM
  relative viability: 0.406
NCI-H1648; first compound 0.3162 µM
  relative viability: 0.4
NCI-H1648; first compound 1 µM
  relative viability: 0.407
NCI-H1623; first compound 0.01 µM
  relative viability: 0.67
NCI-H1623; first compound 0.03162 µM
  relative viability: 0.454
NCI-H1623; first compound 0.1 µM
  relative viability: 0.43
NCI-H1623; first compound 0.3162 µM
  relative viability: 0.513
NCI-H1623; first compound 1 µM
  relative viability: 0.416
LOU-NH91; first compound 0.01 µM
  relative viability: 0.613
LOU-NH91; first compound 0.03162 µM
  relative viability: 0.684
LOU-NH91; first compound 0.1 µM
  relative viability: 0.697
LOU-NH91; first compound 0.3162 µM
  relative viability: 0.677
LOU-NH91; first compound 1 µM
  relative viability: 0.574

## O=c1cc(-c2cccc3c2Sc2ccccc2S3)oc(N2CCOCC2)c1 + Cc1cc(Nc2cc(N3CCN(C)CC3)nc(Sc3ccc(NC(=O)C4CC4)cc3)n2)n[nH]1 [Tozasertib] (partner 0.1 µM)
HCC-44; first compound 0.08 µM
  relative viability: 0.888
HCC-44; first compound 0.253 µM
  relative viability: 1.01
HCC-44; first compound 2.53 µM
  relative viability: 0.717
HCC-44; first compound 8 µM
  relative viability: 0.54
NCI-H1437; first compound 0.08 µM
  relative viability: 0.385
NCI-H1437; first compound 0.253 µM
  relative viability: 0.477
NCI-H1437; first compound 0.8 µM
  relative viability: 0.43
NCI-H1437; first compound 2.53 µM
  relative viability: 0.381
NCI-H1437; first compound 8 µM
  relative viability: 0.435
HCC-366; first compound 0.08 µM
  relative viability: 0.144
HCC-366; first compound 0.253 µM
  relative viability: 0.367
HCC-366; first compound 0.8 µM
  relative viability: 0.093
HCC-366; first compound 2.53 µM
  relative viability: 0.0682
HCC-366; first compound 8 µM
  relative viability: 0.0642
NCI-H3122; first compound 0.08 µM
  relative viability: 0.488
NCI-H3122; first compound 0.253 µM
  relative viability: 0.404
NCI-H3122; first compound 0.8 µM
  relative viability: 0.355
NCI-H3122; first compound 2.53 µM
  relative viability: 0.424
NCI-H3122; first compound 8 µM
  relative viability: 0.479
NCI-H2085; first compound 0.08 µM
  relative viability: 0.778
NCI-H2085; first compound 0.253 µM
  relative viability: 0.724
NCI-H2085; first compound 0.8 µM
  relative viability: 0.768
NCI-H2085; first compound 2.53 µM
  relative viability: 0.579
NCI-H2085; first compound 8 µM
  relative viability: 0.551
NCI-H1648; first compound 0.08 µM
  relative viability: 0.492
NCI-H1648; first compound 0.253 µM
  relative viability: 0.386
NCI-H1648; first compound 0.8 µM
  relative viability: 0.426
NCI-H1648; first compound 2.53 µM
  relative viability: 0.411
NCI-H1648; first compound 8 µM
  relative viability: 0.399
NCI-H1623; first compound 0.08 µM
  relative viability: 0.445
NCI-H1623; first compound 0.253 µM
  relative viability: 0.414
NCI-H1623; first compound 0.8 µM
  relative viability: 0.393
NCI-H1623; first compound 2.53 µM
  relative viability: 0.4
NCI-H1623; first compound 8 µM
  relative viability: 0.43
LOU-NH91; first compound 0.08 µM
  relative viability: 0.652
LOU-NH91; first compound 0.253 µM
  relative viability: 0.678
LOU-NH91; first compound 0.8 µM
  relative viability: 0.638
LOU-NH91; first compound 2.53 µM
  relative viability: 0.568
LOU-NH91; first compound 8 µM
  relative viability: 0.679
